Structures are written as SMILES.

The text below walks through data of patent US20250312352A1, “GLP-1R MODULATING COMPOUNDS” (Gilead Sciences, Inc., priority 2021, published 2025).

In this assay the target is T1, GLP-1R (Homo sapiens, UniProt P43220).
T1 construct: host or cells: CHO cells
Description: GLP-1R activation cAMP assay (Assay 1 or Assay 2). It counts as cell-based. The conditions noted are these: cAMP increase in CHO cells stably expressing GLP-1R; compounds run on one of the two cAMP assays. The essentials:
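EC50 values come from a sigmoidal fit of HTRF-detected cAMP rise versus log agonist concentration. GLP-1R-expressing CHO cells, equilibrated 1 h at 37 °C in HBSS with HEPES and BSA, received a 10-point compound dose series for 30 min before detection.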
(Changes in cAMP serve as a functional read-out for many G protein-coupled receptors.)

T1 sequence (P43220 24-463): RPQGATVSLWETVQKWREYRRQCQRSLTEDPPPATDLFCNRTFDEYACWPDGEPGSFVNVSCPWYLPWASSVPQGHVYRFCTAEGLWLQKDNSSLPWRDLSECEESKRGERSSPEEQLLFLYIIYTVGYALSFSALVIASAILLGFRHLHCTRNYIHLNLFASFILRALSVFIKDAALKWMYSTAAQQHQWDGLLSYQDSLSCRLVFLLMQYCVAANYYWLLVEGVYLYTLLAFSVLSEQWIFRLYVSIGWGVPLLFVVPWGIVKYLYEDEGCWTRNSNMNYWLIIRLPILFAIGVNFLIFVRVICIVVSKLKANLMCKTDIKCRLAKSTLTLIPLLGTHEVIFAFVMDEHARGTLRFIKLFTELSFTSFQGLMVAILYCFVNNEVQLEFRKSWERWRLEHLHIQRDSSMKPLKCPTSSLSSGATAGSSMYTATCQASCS

Turning to `O=C(O)c1ccc2nc(Cc3cc(F)c(-c4cccc(OCc5ccc(Cl)s5)n4)cc3F)n(C[C@@H]3CCO3)c2c1` [Example 317, (S)-2-(4-(6-((5-chlorothiophen-2-yl)methoxy)pyridin-2-yl)-2,5-difluorobenzyl)-1-(oxetan-2-ylmethyl)-1H-benzo[d]imidazole-6-carboxylic acid], the EC50 (in general, the concentration giving half of the maximal effect) was 0.125 nM. That is a sub-nanomolar value.

Take `CC(F)(F)c1cnc(COc2cccc(-c3cc(F)c(Cc4nc5c(F)cc(C(=O)O)cc5n4C[C@@H]4CCO4)cc3F)n2)s1` [Example 318, (S)-2-(4-(6-((5-(1,1-difluoroethyl)thiazol-2-yl)methoxy)pyridin-2-yl)-2,5-difluorobenzyl)-4-fluoro-1-(oxetan-2-ylmethyl)-1H-benzo[d]imidazole-6-carboxylic acid]: the EC50 came out at 0.028 nM.

Turning to `O=C(O)c1cc(F)c2nc(Cc3cc(F)c(-c4cccc(OCc5ncc(Cl)s5)n4)cc3F)n(C[C@@H]3CCO3)c2c1` [Example 319, (S)-2-(4-(6-((5-chlorothiazol-2-yl)methoxy)pyridin-2-yl)-2,5-difluorobenzyl)-4-fluoro-1-(oxetan-2-ylmethyl)-1H-benzo[d]imidazole-6-carboxylic acid], the EC50 turned out to be 0.034 nM. The EC50 values of the last two compounds are within 1.5-fold of each other.

Regarding `CC(C)(C)C#Cc1cnc(COc2cccc(-c3cc(F)c(Cc4nc5ccc(C(=O)O)cc5n4C[C@@H]4CCO4)cc3F)n2)s1` [Example 320, (S)-2-(4-(6-((5-(3,3-dimethylbut-1-yn-1-yl)thiazol-2-yl)methoxy)pyridin-2-yl)-2,5-difluorobenzyl)-1-(oxetan-2-ylmethyl)-1H-benzo[d]imidazole-6-carboxylic acid], the midpoint of the response, the EC50, lay at 0.537 nM.

In turn, `CC1(C#Cc2nnc(COc3cccc(-c4cc(F)c(Cc5nc6ccc(C(=O)O)cc6n5C[C@@H]5CCO5)cc4F)n3)s2)CC1` [Example 321, (S)-2-(2,5-difluoro-4-(6-((5-((1-methylcyclopropyl)ethynyl)-1,3,4-thiadiazol-2-yl)methoxy)pyridin-2-yl)benzyl)-1-(oxetan-2-ylmethyl)-1H-benzo[d]imidazole-6-carboxylic acid] returned an EC50 of 0.246 nM. Against the preceding compound, the EC50 is about 2.2-fold lower.

For `O=C(O)c1ccc2nc(Cc3cc(F)c(-c4cccc(OCc5ncc(C#CC6CCOC6)s5)n4)cc3F)n(C[C@@H]3CCO3)c2c1` (stereo partly drawn) [Example 322, 2-(2,5-difluoro-4-(6-((5-((tetrahydrofuran-3-yl)ethynyl)thiazol-2-yl)methoxy)pyridin-2-yl)benzyl)-1-(((S)-oxetan-2-yl)methyl)-1H-benzo[d]imidazole-6-carboxylic acid], the EC50 came out at 0.349 nM. This EC50 and that of the compound before are within 1.5-fold of each other.

In the case of `O=C(O)c1ccc2nc(Cc3cc(F)c(-c4cccc(OCc5ncc(C#CC6(O)CCC6)s5)n4)cc3F)n(C[C@@H]3CCO3)c2c1` [Example 323, (S)-2-(2,5-difluoro-4-(6-((5-((1-hydroxycyclobutyl)ethynyl)thiazol-2-yl)methoxy)pyridin-2-yl)benzyl)-1-(oxetan-2-ylmethyl)-1H-benzo[d]imidazole-6-carboxylic acid], the EC50 turned out to be 0.281 nM.

`O=C(O)c1cc(F)c2nc(Cc3cc(F)c(-c4cccc(OCc5ncc(C(F)F)s5)n4)cc3F)n(C[C@@H]3CCO3)c2c1` [Example 324, (S)-2-(4-(6-((5-(difluoromethyl)thiazol-2-yl)methoxy)pyridin-2-yl)-2,5-difluorobenzyl)-4-fluoro-1-(oxetan-2-ylmethyl)-1H-benzo[d]imidazole-6-carboxylic acid] had an EC50 of 0.123 nM.

On to `N#Cc1ccc(C#Cc2cnc(COc3cccc(-c4cc(F)c(Cc5nc6ccc(C(=O)O)cc6n5C[C@@H]5CCO5)cc4F)n3)s2)cc1` [Example 325, (S)-2-(4-(6-((5-((4-cyanophenyl)ethynyl)thiazol-2-yl)methoxy)pyridin-2-yl)-2,5-difluorobenzyl)-1-(oxetan-2-ylmethyl)-1H-benzo[d]imidazole-6-carboxylic acid], for which the EC50 stood at 0.582 nM.

Take `O=C(O)c1ccc2nc(Cc3cc(F)c(-c4cccc(OCc5ncc(C#CC6(C(F)F)CC6)s5)n4)cc3F)n(C[C@@H]3CCO3)c2c1` [Example 326, (S)-2-(4-(6-((5-((1-(difluoromethyl)cyclopropyl)ethynyl)thiazol-2-yl)methoxy)pyridin-2-yl)-2,5-difluorobenzyl)-1-(oxetan-2-ylmethyl)-1H-benzo[d]imidazole-6-carboxylic acid]: the EC50 is 0.451 nM.

`Cc1cnc(COc2cccc(-c3cc(F)c(Cc4nc5ccc(C(=O)O)cc5n4C[C@@H]4CCO4)cc3F)n2)s1` [Example 327, (S)-2-(2,5-difluoro-4-(6-((5-methylthiazol-2-yl)methoxy)pyridin-2-yl)benzyl)-1-(oxetan-2-ylmethyl)-1H-benzo[d]imidazole-6-carboxylic acid] came in with an EC50 of 0.381 nM.

Compound `CC(C)(C#N)C#Cc1cnc(COc2cccc(-c3cc(F)c(Cc4nc5ccc(C(=O)O)cc5n4C[C@@H]4CCO4)cc3F)n2)s1` [Example 328, (S)-2-(4-(6-((5-(3-cyano-3-methylbut-1-yn-1-yl)thiazol-2-yl)methoxy)pyridin-2-yl)-2,5-difluorobenzyl)-1-(oxetan-2-ylmethyl)-1H-benzo[d]imidazole-6-carboxylic acid] returned a concentration for a half-maximal effect (EC50) of 0.342 nM.

Turning to `CC1(C#Cc2cnc(COc3cccc(-c4cc(F)c(Cc5nc6ccc(C(=O)O)cc6n5C[C@@H]5CCO5)cc4F)n3)s2)CC1` [Example 329, (S)-2-(2,5-difluoro-4-(6-((5-((1-methylcyclopropyl)ethynyl)thiazol-2-yl)methoxy)pyridin-2-yl)benzyl)-1-(oxetan-2-ylmethyl)-1H-benzo[d]imidazole-6-carboxylic acid], the 50% effective concentration (EC50) came out at 0.226 nM.

As to `O=C(O)c1ccc2nc(Cc3cc(F)c(-c4cccc(OCc5nnc(C#CC6CC(F)(F)C6)s5)n4)cc3F)n(C[C@@H]3CCO3)c2c1` [Example 330, (S)-2-(4-(6-((5-((3,3-difluorocyclobutyl)ethynyl)-1,3,4-thiadiazol-2-yl)methoxy)pyridin-2-yl)-2,5-difluorobenzyl)-1-(oxetan-2-ylmethyl)-1H-benzo[d]imidazole-6-carboxylic acid], the EC50 came out at 0.431 nM.

Consider `Cc1cc(Cc2nc3ccc(C(=O)O)cc3n2C[C@@H]2CCO2)c(F)cc1-c1cccc(OCc2ncc(-c3cnn(C(F)F)c3)s2)n1` [Example 331, (S)-2-(4-(6-((5-(1-(difluoromethyl)-1H-pyrazol-4-yl)thiazol-2-yl)methoxy)pyridin-2-yl)-2-fluoro-5-methylbenzyl)-1-(oxetan-2-ylmethyl)-1H-benzo[d]imidazole-6-carboxylic acid], for which the midpoint of the response, the EC50, lay at 0.58 nM.

For the compound `O=C(O)c1ccc2nc(Cc3cc(F)c(-c4cccc(OCc5nc6c(s5)CCC6)n4)cc3F)n(C[C@@H]3CCO3)c2c1` [Example 332, (S)-2-(4-(6-((5,6-dihydro-4H-cyclopenta[d]thiazol-2-yl)methoxy)pyridin-2-yl)-2,5-difluorobenzyl)-1-(oxetan-2-ylmethyl)-1H-benzo[d]imidazole-6-carboxylic acid], the EC50 was 0.109 nM.

Regarding `O=C(O)c1ccc2nc(Cc3cc(F)c(-c4cccc(OCc5ncc(C#CC6CCC6)s5)n4)cc3F)n(C[C@@H]3CCO3)c2c1` [Example 333, (S)-2-(4-(6-((5-(cyclobutylethynyl)thiazol-2-yl)methoxy)pyridin-2-yl)-2,5-difluorobenzyl)-1-(oxetan-2-ylmethyl)-1H-benzo[d]imidazole-6-carboxylic acid], the EC50 was 0.205 nM.

As to `CC(C)(O)C#Cc1cnc(COc2cccc(-c3cc(F)c(Cc4nc5ccc(C(=O)O)cc5n4C[C@@H]4CCO4)cc3F)n2)s1` [Example 334, (S)-2-(2,5-difluoro-4-(6-((5-(3-hydroxy-3-methylbut-1-yn-1-yl)thiazol-2-yl)methoxy)pyridin-2-yl)benzyl)-1-(oxetan-2-ylmethyl)-1H-benzo[d]imidazole-6-carboxylic acid], the EC50 came to 0.354 nM.

As for `O=C(O)c1ccc2nc(Cc3cc(F)c(-c4cccc(OCc5ncc(C#CC6(C(F)(F)F)CC6)s5)n4)cc3F)n(C[C@@H]3CCO3)c2c1` [Example 335, (S)-2-(2,5-difluoro-4-(6-((5-((1-(trifluoromethyl)cyclopropyl)ethynyl)thiazol-2-yl)methoxy)pyridin-2-yl)benzyl)-1-(oxetan-2-ylmethyl)-1H-benzo[d]imidazole-6-carboxylic acid], the response was half-maximal at 0.202 nM (EC50). Compared with the last compound, the EC50 is about 1.8-fold lower.

Turning to `O=C(O)c1ccc2nc(Cc3cc(F)c(-c4cccc(OCc5ncc(C#CC6CC(F)(F)C6)s5)n4)cc3F)n(C[C@@H]3CCO3)c2c1` [Example 336, (S)-2-(4-(6-((5-((3,3-difluorocyclobutyl)ethynyl)thiazol-2-yl)methoxy)pyridin-2-yl)-2,5-difluorobenzyl)-1-(oxetan-2-ylmethyl)-1H-benzo[d]imidazole-6-carboxylic acid], the EC50 came out at 0.261 nM.

With `Cc1cc(Cc2nc3ccc(C(=O)O)cc3n2[C@@H]2COCC2(C)C)c(F)cc1-c1ccc(F)c(OCc2ncc(C(C)(F)F)s2)n1` [Example 337, (S)-2-(4-(6-((5-(1,1-difluoroethyl)thiazol-2-yl)methoxy)-5-fluoropyridin-2-yl)-2-fluoro-5-methylbenzyl)-1-(4,4-dimethyltetrahydrofuran-3-yl)-1H-benzo[d]imidazole-6-carboxylic acid], a half-maximal effect (EC50) was put at 1.2 nM.

`CC(F)(F)c1cnc(COc2nc(-c3cc(F)c(Cc4nc5c(F)cc(C(=O)O)cc5n4[C@@H]4COCC4(C)C)cc3F)ccc2F)s1` [Example 338, (S)-2-(4-(6-((5-(1,1-difluoroethyl)thiazol-2-yl)methoxy)-5-fluoropyridin-2-yl)-2,5-difluorobenzyl)-1-(4,4-dimethyltetrahydrofuran-3-yl)-4-fluoro-1H-benzo[d]imidazole-6-carboxylic acid] had an EC50 of 0.218 nM. Compared with the last compound, the EC50 is about 5.5-fold lower.

As to `COc1nnc(COc2nc(-c3cc(F)c(Cc4nc5ccc(C(=O)O)cc5n4[C@@H]4COCC4(C)C)cc3F)ccc2F)s1` [Example 339, (S)-2-(2,5-difluoro-4-(5-fluoro-6-((5-methoxy-1,3,4-thiadiazol-2-yl)methoxy)pyridin-2-yl)benzyl)-1-(4,4-dimethyltetrahydrofuran-3-yl)-1H-benzo[d]imidazole-6-carboxylic acid], the EC50 was 0.043 nM.
